US20260098037A1, “COMPOUND CONTAINING MULTI-FUSED RING STRUCTURE” (Chia Tai Tianqing Pharmaceutical Group Co., Ltd., priority 2023, published 2026)
Read-outs that look alike come from different tables or passages of the source.

Key:
GLP1R = GLP1R (Homo sapiens, UniProt P43220); assay: In vitro cellular cAMP expression activity assay (CRE-luciferase reporter); assay type: cell-based; conditions: HEK293/CRE-Luc/GLP1R cells, 6 h incubation, luciferase luminescence; read-out: HEK293/CRE-Luc/GLP-1R EC50
Method: HEK293/CRE-Luc/GLP1R cells (manufacturer: GenScript Biotech Corporation) in a good growth state were taken, washed with PBS, and digested with pancreatin. The digestion was terminated with a complete medium. The cells were collected into a centrifuge tube, adjusted to a cell density of 4×10^5 cells/mL using a DMEM+2% FBS medium, seeded in a 96-well plate (100 μL/well), and incubated at 37° C. for 1 h. After 1 h, the compounds were added using a nanoliter pipettor such that the final concentrations of the compounds were 10 nM-0.0006 nM. The compounds were added in duplicate, and a control was set. After the cells were incubated in a cell incubator for another 6 h, a detection reagent Luciferase (manufacturer: Vazyme Biotech, 50 μL/well) was added. The plate was left to stand at room temperature for 3 min to fully lyse the cells, and the luminescence was detected on a PerkinElmer Envision microplate reader. A dose-response curve was fitted by four-parameter analysis, and the EC50 was calculated.

[1] = In vitro stability assay in liver microsome (HLM); assay type: in vitro ADME, human; conditions: liver microsome 0.5 mg/mL, NADPH+MgCl2, PBS pH 7.4, 1 h
Method: (§1) Liver microsome incubation samples were prepared by mixing a PBS buffer (pH 7.4), a liver microsome solution (0.5 mg/mL), a test compound, and an NADPH+MgCl2 solution, and incubated at […] and 300 rpm for 1 h. Zero-hour samples were prepared by mixing a PBS buffer (pH 7.4), a liver microsome solution (0.5 mg/mL), and a test compound. An acetonitrile solution containing an internal standard was added to the samples, and supernatants were prepared by protein precipitation, diluted, and then assayed by LC/MS/MS.

[2] = In vitro stability assay in liver microsome (MLM); assay type: in vitro ADME, mouse; conditions: liver microsome 0.5 mg/mL, NADPH+MgCl2, PBS pH 7.4, 1 h
Method: as §1

[3] = In vivo pharmacokinetic evaluation in mice; conditions: mouse, plasma, ICR mice; for bioavailability: ig 3 mg/kg vs iv 0.5 mg/kg, read-out: Absolute bioavailability F; for MRT last: read-out: MRT(0-24); for half-life: read-out: t½ (converted); for AUC(0-t): read-out: AUC(0-24)
Method: ICR mice of 18-22 g were randomized into 4 groups of 9 mice after 3-5 days of acclimatization. […]
The test animals (ICR mice) were fasted from 12 h pre-dose to 4 h post-dose, and given free access to water throughout the study.
Orbital blood samples of about 0.1 mL were collected at 15 min, 30 min, 1 h, 2 h, 3 h, 4 h, 6 h, 8 h, 10 h, and 24 h post-dose for the intragastric administration, and at 5 min, 10 min, 30 min, 1 h, 2 h, 4 h, 6 h, 8 h, 10 h, and 24 h post-dose for the intravenous administration. The blood sampling was performed at 3-4 time points for each mouse, 3 mice per time point. The collected whole blood was transferred into EDTA-K2-containing centrifuge tubes and stored at 4° C., and, within 1 h, centrifuged at 4° C. at 4000 rpm for 10 min to separate the plasma. All the plasma samples were immediately stored after collection at −20° C. for testing.
30 μL of the plasma sample to be tested and a standard curve sample were pipetted and added with 300 μL of an acetonitrile solution containing an internal standard (20 ng/mL of diazepam). The mixture was shaken to mix well for 5 min, and centrifuged at 13,000 rpm for 10 min. 80 μL of the supernatant was taken and diluted with 80 μL of ultrapure water. After a thorough mixing, 2 μL of the resulting sample was taken for liquid chromatography-mass spectrometry, and the chromatogram was recorded.

Chain of GLP1R (P43220 24-463): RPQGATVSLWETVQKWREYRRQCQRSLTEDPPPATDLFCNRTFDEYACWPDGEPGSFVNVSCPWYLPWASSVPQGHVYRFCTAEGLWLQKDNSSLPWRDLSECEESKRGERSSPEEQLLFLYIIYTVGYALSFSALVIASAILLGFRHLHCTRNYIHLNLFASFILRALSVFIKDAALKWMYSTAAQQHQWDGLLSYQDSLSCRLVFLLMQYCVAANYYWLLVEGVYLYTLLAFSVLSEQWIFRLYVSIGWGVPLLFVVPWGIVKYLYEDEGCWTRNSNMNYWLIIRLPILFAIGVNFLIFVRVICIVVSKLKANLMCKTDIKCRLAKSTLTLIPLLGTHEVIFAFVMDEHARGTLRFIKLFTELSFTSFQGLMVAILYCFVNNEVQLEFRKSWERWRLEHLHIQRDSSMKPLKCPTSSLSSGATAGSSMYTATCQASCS

| Structure (SMILES) | EC50 (GLP1R) [nM] | HLM Remaining (T = 60 min) [1] [%] | MLM Remaining (T = 60 min) [2] [%] | other results |
| --- | --- | --- | --- | --- |
| C[C@H]1c2c(nn(-c3ccc(F)c(C4CC4)c3)c2-n2ccn(-c3ccc4c(c3)C3(CC3)C(=O)N4C)c2=O)CCN1C(=O)c1cc2cc(C3CCOC(C)(C)C3)ccc2n1[C@@]1(c2nc(=O)o[nH]2)C[C@@H]1C (single isomer, unassigned) [Compound 6] | < 0.5 | – | – | – |
| C[C@H]1c2c(nn(-c3ccc(F)c(C4CC4)c3)c2-n2ccn(-c3ccc4c(c3)N(C)C(=O)C43CC3)c2=O)CCN1C(=O)c1cc2cc(C3CCOC(C)(C)C3)ccc2n1C1(c2noc(=O)[nH]2)CC1 (single isomer, unassigned) [Compound 20] | < 0.5 | 95.39 | 77.59 | – |
| Cc1cc(-n2nc3c(c2-n2ccn(-c4ccc5c(c4)C4(CCC4)C(=O)N5C)c2=O)[C@H](C)N(C(=O)c2cc4cc(C5CCOC(C)(C)C5)ccc4n2[C@@]2(c4nc(=O)o[nH]4)C[C@@H]2C)CC3)cc(C)c1F (single isomer, unassigned) [Compound 21] | < 0.5 | – | – | – |
| Cc1cc(-n2nc3c(c2-n2ccn(-c4ccc5c(c4)C4(CC4)C(=O)N5C)c2=O)C(C)N(C(=O)c2cc4cc(C5CCOC(C)(C)C5)ccn4c2C2(c4noc(=O)[nH]4)CC2C)CC3)cc(C)c1F (single isomer, unassigned) [Compound 22-A] | < 0.5 | – | – | – |
| Cc1cc(-n2nc3c(c2-n2ccn(-c4ccc5c(c4)C4(CC4)C(=O)N5C)c2=O)[C@H](C)N(C(=O)c2cc4cc([C@H]5CCOC(C)(C)C5)ccc4n2[C@@]2(c4noc(=O)[nH]4)C[C@@H]2C)CC3)cc(C)c1F [Compound 1-A] | < 0.5 | – | – | – |
| [2H]C([2H])([2H])N1C(=O)C2(CC2)c2cc(-n3ccn(-c4c5c(nn4-c4cc(C)c(F)c(C)c4)CCN(C(=O)c4cc6cc([C@H]7CCOC(C)(C)C7)ccc6n4[C@@]4(c6noc(=O)[nH]6)C[C@@H]4C)[C@H]5C)c3=O)ccc21 [Compound 2] | < 0.5 | 88.76 | 88.89 | bioavailability ([3]; po): 43.9%; MRT last ([3]; po, ig, dose 3 mg/kg): 7.73 h; half-life ([3]; po, ig, dose 3 mg/kg): 3.53 h; MRT last ([3]; iv, dose 0.5 mg/kg): 5.13 h; half-life ([3]; iv, dose 0.5 mg/kg): 4.1 h; AUC(0-inf) ([3]; po, ig, dose 3 mg/kg): 4880 ng·h/mL; AUC(0-t) ([3]; po, ig, dose 3 mg/kg): 4790 ng·h/mL; AUC(0-inf) ([3]; iv, dose 0.5 mg/kg): 1850 ng·h/mL; AUC(0-t) ([3]; iv, dose 0.5 mg/kg): 1820 ng·h/mL |
| Cc1cc(-n2nc3c(c2-n2ccn(-c4ccc5c(c4)C4(CC4)C(=O)N5C4CC4)c2=O)[C@H](C)N(C(=O)c2cc4cc([C@H]5CCOC(C)(C)C5)ccc4n2[C@@]2(c4noc(=O)[nH]4)C[C@@H]2C)CC3)cc(C)c1F [Compound 3] | < 0.5 | 80.83 | 90.13 | bioavailability ([3]; po): 33.7%; MRT last ([3]; po, ig, dose 3 mg/kg): 8.42 h; half-life ([3]; po, ig, dose 3 mg/kg): 4.15 h; MRT last ([3]; iv, dose 0.5 mg/kg): 6.13 h; half-life ([3]; iv, dose 0.5 mg/kg): 5.73 h; AUC(0-inf) ([3]; po, ig, dose 3 mg/kg): 4960 ng·h/mL; AUC(0-t) ([3]; po, ig, dose 3 mg/kg): 4800 ng·h/mL; AUC(0-inf) ([3]; iv, dose 0.5 mg/kg): 2450 ng·h/mL; AUC(0-t) ([3]; iv, dose 0.5 mg/kg): 2360 ng·h/mL |
| Cc1cc(-n2nc3c(c2-n2ccn(-c4ccc5c(c4)C4(CC4)C(=O)N5C)c2=O)[C@H](C)N(C(=O)c2cc4cc([C@H]5CCOC(C)(C)C5)ccc4n2C2(c4noc(=O)[nH]4)CC2)CC3)cc(C)c1F [Compound 4] | < 0.5 | 91.85 | 95.46 | – |
| Cc1cc(-n2nc3c(c2-n2ccn(-c4ccc5nc6n(c5c4)CCN(C)C6)c2=O)[C@H](C)N(C(=O)c2cc4cc([C@H]5CCOC(C)(C)C5)ccc4n2[C@@]2(c4noc(=O)[nH]4)C[C@@H]2C)CC3)cc(C)c1F [Compound 7] | < 0.5 | – | – | – |
| Cc1cc(-n2nc3c(c2-n2ccn(-c4ccc5nc6n(c5c4)CCC6)c2=O)[C@H](C)N(C(=O)c2cc4cc([C@H]5CCOC(C)(C)C5)ccc4n2[C@@]2(c4noc(=O)[nH]4)C[C@@H]2C)CC3)cc(C)c1F [Compound 8] | < 0.5 | – | – | – |
| Cc1cc(-n2nc3c(c2-n2ccn(-c4ccc5c(c4)C(=O)C4(CC4)C5)c2=O)[C@H](C)N(C(=O)c2cc4cc([C@H]5CCOC(C)(C)C5)ccc4n2[C@@]2(c4noc(=O)[nH]4)C[C@@H]2C)CC3)cc(C)c1F [Compound 9-A] | < 0.5 | – | – | – |
| COCC#Cc1ccc(-n2ccn(-c3c4c(nn3-c3cc(C)c(F)c(C)c3)CCN(C(=O)c3cc5cc([C@H]6CCOC(C)(C)C6)ccc5n3[C@@]3(c5noc(=O)[nH]5)C[C@@H]3C)[C@H]4C)c2=O)c(F)c1 [Compound 10-A] | < 0.5 | – | – | – |
| Cc1cc(-n2nc3c(c2-n2ccn(-c4ccc5c(c4)CC4(COC4)C5)c2=O)[C@H](C)N(C(=O)c2cc4cc([C@H]5CCOC(C)(C)C5)ccc4n2[C@@]2(c4noc(=O)[nH]4)C[C@@H]2C)CC3)cc(C)c1F [Compound 12-A] | < 0.5 | – | – | – |
| [2H]C([2H])([2H])N1C(=O)C2(CC2)c2ccc(-n3ccn(-c4c5c(nn4-c4cc(C)c(F)c(C)c4)CCN(C(=O)c4cc6cc([C@H]7CCOC(C)(C)C7)ccc6n4[C@@]4(c6noc(=O)[nH]6)C[C@@H]4C)[C@H]5C)c3=O)cc21 [Compound 13] | < 0.5 | 84.57 | 84.44 | – |
| Cc1cc(-n2nc3c(c2-n2ccn(-c4cc(F)c5c(c4)N(C)C(=O)C54CC4)c2=O)[C@H](C)N(C(=O)c2cc4cc([C@H]5CCOC(C)(C)C5)ccc4n2[C@@]2(c4noc(=O)[nH]4)C[C@@H]2C)CC3)cc(C)c1F [Compound 16] | < 0.5 | – | – | – |
| Cc1cc(-n2nc3c(c2-n2ccn(-c4ccc5c(c4)N(C4CC4)C(=O)C54CC4)c2=O)[C@H](C)N(C(=O)c2cc4cc([C@H]5CCOC(C)(C)C5)ccc4n2[C@@]2(c4noc(=O)[nH]4)C[C@@H]2C)CC3)cc(C)c1F [Compound 17] | < 0.5 | – | – | – |
| C[C@H]1c2c(nn(-c3ccc(F)c(C4CC4)c3)c2-n2ccn(-c3ccc4c(c3)N(C)C(=O)C43CC3)c2=O)CCN1C(=O)c1cc2cc([C@H]3CCOC(C)(C)C3)ccc2n1[C@@]1(c2noc(=O)[nH]2)C[C@@H]1C [Compound 18] | < 0.5 | 89.14 | 91.41 | bioavailability ([3]; po): 33.5%; MRT last ([3]; po, ig, dose 3 mg/kg): 8.36 h; half-life ([3]; po, ig, dose 3 mg/kg): 4.29 h; MRT last ([3]; iv, dose 0.5 mg/kg): 5.48 h; half-life ([3]; iv, dose 0.5 mg/kg): 4.55 h; AUC(0-inf) ([3]; po, ig, dose 3 mg/kg): 6030 ng·h/mL; AUC(0-t) ([3]; po, ig, dose 3 mg/kg): 5840 ng·h/mL; AUC(0-inf) ([3]; iv, dose 0.5 mg/kg): 3000 ng·h/mL; AUC(0-t) ([3]; iv, dose 0.5 mg/kg): 2930 ng·h/mL |
| Cc1cc(-n2nc3c(c2-n2ccn(-c4ccc5c(c4)N(C)C(=O)C54CC4)c2=O)[C@H](C)N(C(=O)c2cc4cc([C@H]5CCOC(C)(C)C5)ccc4n2C2(c4noc(=O)[nH]4)CC2)CC3)cc(C)c1F [Compound 19] | < 0.5 | 92.40 | 77.17 | – |
| C[C@H]1c2c(nn(-c3ccc(F)c(C4CC4)c3)c2-n2ccn(-c3ccc4c(c3)C3(CC3)C(=O)N4C)c2=O)CCN1C(=O)c1cc2cc([C@H]3CCOC(C)(C)C3)ccn2c1[C@@]1(c2noc(=O)[nH]2)C[C@@H]1C [Compound 24] | < 0.5 | – | – | – |
| C[C@H]1c2c(nn(-c3ccc(F)c(C4CC4)c3)c2-n2ccn(-c3ccc4c(c3)CC3(CC3)C4=O)c2=O)CCN1C(=O)c1cc2cc([C@H]3CCOC(C)(C)C3)ccc2n1[C@@]1(c2noc(=O)[nH]2)C[C@@H]1C [Compound 26] | < 0.5 | – | – | – |
